Source: patent US20240417428A1, “POLYPEPTIDE FOR INHIBITING TRPM8 AND USE THEREOF” (ZHEJIANG UNIVERSITY, priority 2021, published 2024)
Entries after “also recorded” stand apart in the source; their conditions may differ. Where a SMILES comes first, the peptide text is derived from it.

Experiments:
[1] = target: T1, TRPV3 (Homo sapiens, UniProt Q8NET8); test: Electrophysiological recording, ligand activation of TRPV3; type: cell-based
T1 construct: expressed in transfected cells; host or cells: HEK293T
T1 sequence (Q8NET8 1-790): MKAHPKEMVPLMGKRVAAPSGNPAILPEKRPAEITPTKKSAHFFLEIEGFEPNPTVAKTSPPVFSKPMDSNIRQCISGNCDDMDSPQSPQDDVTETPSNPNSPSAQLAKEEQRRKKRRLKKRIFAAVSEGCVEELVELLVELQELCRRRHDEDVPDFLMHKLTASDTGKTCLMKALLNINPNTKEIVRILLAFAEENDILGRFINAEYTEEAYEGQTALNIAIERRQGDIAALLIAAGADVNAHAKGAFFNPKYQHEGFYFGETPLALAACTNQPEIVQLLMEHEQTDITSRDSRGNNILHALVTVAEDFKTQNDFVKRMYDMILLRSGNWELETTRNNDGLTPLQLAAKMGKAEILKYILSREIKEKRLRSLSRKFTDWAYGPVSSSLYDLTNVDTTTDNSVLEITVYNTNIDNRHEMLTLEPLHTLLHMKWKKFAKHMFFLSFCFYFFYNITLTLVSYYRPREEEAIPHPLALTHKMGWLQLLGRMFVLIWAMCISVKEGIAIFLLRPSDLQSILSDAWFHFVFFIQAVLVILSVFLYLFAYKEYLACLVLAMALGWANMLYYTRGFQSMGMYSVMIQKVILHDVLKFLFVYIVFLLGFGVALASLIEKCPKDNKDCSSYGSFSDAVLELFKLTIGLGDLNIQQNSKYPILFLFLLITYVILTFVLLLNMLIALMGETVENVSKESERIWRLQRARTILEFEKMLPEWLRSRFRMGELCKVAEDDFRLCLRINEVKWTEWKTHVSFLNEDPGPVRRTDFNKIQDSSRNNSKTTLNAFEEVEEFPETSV
Procedure: (§1) HEK293T cells were cultured in Dulbecco's modified Eagle culture medium under a 37° C., 5% CO2 environment, 10% fetal bovine serum, penicillin (100 U/mL), and streptomycin ([…]) was needed to add into the culture medium. Transient transfection was conducted by using Lipo 2000 (Invitrogen) transfection kit and following the instruction manual.
(§2) Electrophysiological experiment recordings were performed on the cells within 24˜48 h of transient transfections. Specifically, single channel electrophysiological recordings were performed within 8 h after transfection.
(§3) Measurement of the cell currents was respectively performed in the whole-cell recording mode, inside-out recording mode or outside-out recording mode with a HEKA EPC10 amplifier. In the whole cell electrophysiological recordings, glass microelectrodes made of borosilicate material were fire-polished to a original electrode resistance of about 3-6 MΩ. Serial resistance was compensated by 60%. The whole cell electrophysiological recordings were performed at ±80 mV. For single channel electrophysiological recordings, glass microelectrodes were fire-polished to a higher resistance of 6-8 MΩ2. Current signal was sampled at 10 kHz and filtered at 2.9 kHz. Membrane potential of the cell membrane would be clamped at +80 mV. All electrophysiological recordings were performed at room temperature (22° C.) (the maximum variation is 1° C.). […]

[2] = Mice body temperature measurement; type: in vivo; conditions: 30 μg/g body weight i.v., up to 24 h
Procedure: A digital thermometer (FT3400) was used for body temperature measurement of mice. Adult CD1 male mice were placed into an environmental room maintained at a constant temperature of 22±1° C. Mice were injected with DeC-1.2 (30 mg/kg body weight) via the tail vein to assess the effect of DeC-1.2 on body temperature. Body temperature was measured before treatment (baseline, BL) and at 5 min, 15 min, 0.5, 1, 2, 6 and 24 hours following DeC-1.2 (30 mg/kg, i.v.) administration. The test probe of the thermometer was inserted into the anus of the mouse approximately 2 cm, and the body temperature was recorded after the temperature display value was stable.

[3] = target: TRPM8 (Mus musculus, UniProt Q8R4D5); test: Inside-out single-channel recording of cold-activated TRPM8 (16° C.) at +80 mV; type: cell-based; parameters: expressed in transfected cells; host or cells: HEK293T; conditions: DeC-1.2 100 μM at 16° C.
Procedure: as §1, §2
as §3, with “mV.” for “mV. All electrophysiological recordings were performed at room temperature (22° C.) (the maximum variation is 1° C.).”
There were different bath and pipette solutions prepared for different ion channels current measurement. […]

Sequence of TRPM8 (Q8R4D5 whole entry): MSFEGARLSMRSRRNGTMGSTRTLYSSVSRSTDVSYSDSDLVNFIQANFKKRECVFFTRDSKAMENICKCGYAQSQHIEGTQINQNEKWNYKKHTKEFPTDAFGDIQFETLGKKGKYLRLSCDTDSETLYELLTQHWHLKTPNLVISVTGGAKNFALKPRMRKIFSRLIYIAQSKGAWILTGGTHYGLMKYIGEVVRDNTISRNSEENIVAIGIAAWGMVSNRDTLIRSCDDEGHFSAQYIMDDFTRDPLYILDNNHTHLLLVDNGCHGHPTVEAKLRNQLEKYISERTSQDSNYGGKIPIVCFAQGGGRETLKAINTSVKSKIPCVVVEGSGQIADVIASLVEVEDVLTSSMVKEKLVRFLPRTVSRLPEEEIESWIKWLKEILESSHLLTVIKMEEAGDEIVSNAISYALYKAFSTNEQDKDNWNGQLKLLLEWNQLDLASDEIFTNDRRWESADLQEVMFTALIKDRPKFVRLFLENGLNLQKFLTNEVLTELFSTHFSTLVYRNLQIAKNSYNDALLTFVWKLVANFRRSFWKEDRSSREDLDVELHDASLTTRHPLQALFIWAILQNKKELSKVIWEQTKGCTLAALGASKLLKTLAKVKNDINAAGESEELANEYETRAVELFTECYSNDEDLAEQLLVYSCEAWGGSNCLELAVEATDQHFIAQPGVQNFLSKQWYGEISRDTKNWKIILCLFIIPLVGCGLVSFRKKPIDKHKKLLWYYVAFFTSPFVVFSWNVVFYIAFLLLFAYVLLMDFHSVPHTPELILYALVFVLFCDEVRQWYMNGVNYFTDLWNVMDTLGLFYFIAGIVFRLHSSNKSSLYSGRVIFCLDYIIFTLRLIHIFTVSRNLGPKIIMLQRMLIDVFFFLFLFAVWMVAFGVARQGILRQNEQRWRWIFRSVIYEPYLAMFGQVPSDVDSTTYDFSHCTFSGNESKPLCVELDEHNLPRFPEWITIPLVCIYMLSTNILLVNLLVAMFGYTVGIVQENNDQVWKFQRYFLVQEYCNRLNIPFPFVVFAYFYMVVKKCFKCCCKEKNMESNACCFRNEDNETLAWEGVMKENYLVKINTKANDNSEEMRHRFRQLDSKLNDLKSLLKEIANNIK

C[C@@H]1NC(=O)[C@H](CCCNC(=N)N)NC(=O)[C@H](CC(=O)O)NC(=O)[C@H](CCCNC(=N)N)NC(=O)[C@H](CCCNC(=N)N)NC(=O)[C@@H](N)CSSC[C@@H](C(=O)O)NC(=O)[C@H](CCCNC(=N)N)NC(=O)[C@H](CCC(N)=O)NC(=O)[C@H](CCCNC(=N)N)NC(=O)[C@H](Cc2ccc(O)cc2)NC(=O)[C@H](Cc2c[nH]cn2)NC(=O)[C@H](CCCNC(=N)N)NC1=O [DeC-1.2, CRRDRARHYRQRC] (HELM PEPTIDE1{C.R.R.D.R.A.R.H.Y.R.Q.R.C}$PEPTIDE1,PEPTIDE1,1:R3-13:R3$$$V2.0; N-terminus and C-terminus assumed)
IC50 [1]: > 100 µM | inhibition of ligand activation of TRPV3 ([1]; DeC-1.2 5 μM): failed to inhibit | effect on body temperature [2]: did not significantly alter body temperature | effect on open probability of cold-activated TRPM8 [3]: does not change significantly; also recorded: did not decrease the open probability | effect on single-channel conductance of cold-activated TRPM8 [3]: does not change significantly; also recorded: did not further reduce the single-channel conductance
